Assays:
[1] = tested on: Beet Armyworm (Spodoptera exigua); assay: Bioassay on Beet Armyworm (BAW), 128-well diet tray assay; assay type: in vivo; details: Spodoptera exigua, 168 h; 50 μg/cm^2 on artificial diet, second instar larvae, five to seven days; read-out: BAW % Control (or Mortality) rating
Description: (§1) Certain molecules disclosed in this document were tested against BAW and CL using procedures described in the following examples. In the reporting of the results, the “BAW & CL Rating Table” was used (See Table Section).
Bioassays on BAW were conducted using a 128-well diet tray assay. […] Trays were covered with a clear self-adhesive cover, vented to allow gas exchange, and held at 25° C., 14:10 light-dark for five to seven days. Percent mortality was recorded for the larvae in each well; activity in the eight wells was then averaged. The results are indicated in the table entitled “Table ABC: Biological Results” (See Table Section).

[2] = tested on: Cabbage Looper (Trichoplusia ni); assay: Bioassay on Cabbage Looper (CL), 128-well diet tray assay; assay type: in vivo; details: 168 h, 50 μg/cm^2 on artificial diet, second instar larvae, five to seven days, read-out: CL % Control (or Mortality) rating
Description: as §1
Bioassays on CL were conducted using a 128-well diet tray assay. One to five second instar CL larvae were placed in each well (3 mL) of the diet tray that had been previously filled with 1 mL of artificial diet to which 50 μg/cm^2 of the test molecule (dissolved in 50 μL of 90:10 acetone-water mixture) had been applied (to each of eight wells) and then allowed to dry. Trays were covered with a clear self-adhesive cover, vented to allow gas exchange, and held at 25° C., 14:10 light-dark for five to seven days. Percent mortality was recorded for the larvae in each well; activity in the eight wells was then averaged. The results are indicated in the table entitled “Table ABC: Biological Results” (See Table Section).

SMILES | mortality at 50 µg/cm2 [1] | mortality at 50 µg/cm2 [2]
O=C(N/N=C/c1ccccc1)c1ccc(/C(F)=C/C(c2cc(Cl)c(Cl)c(Cl)c2)C(F)(F)F)cc1C(F)(F)F (centres unmarked) [F38, N′-((E)-benzylidene)-4-((Z)-1,4,4,4-tetrafluoro-3-(3,4,5-trichlorophenyl)but-1-en-1-yl)-2-(trifluoromethyl)benzohydrazide] | 50 to 100% | 50 to 100%
CC(C)(C)NNC(=O)c1ccc(/C(F)=C/C(c2cc(Cl)c(Cl)c(Cl)c2)C(F)(F)F)cc1C(F)(F)F (centres unmarked) [F40, (Z)—N′-(tert-Butyl)-4-(1,4,4,4-tetrafluoro-3-(3,4,5-trichlorophenyl)but-1-en-1-yl)-2-(trifluoromethyl)benzohydrazide] | 50 to 100% | 50 to 100%
CCc1cnc(N(C)NC(=O)c2ccc(/C(F)=C/C(c3cc(Cl)c(Cl)c(Cl)c3)C(F)(F)F)cc2C(F)(F)F)nc1 (centres unmarked) [F41, (Z)—N′-(5-Ethylpyrimidin-2-yl)-N′-methyl-4-(1,4,4,4-tetrafluoro-3-(3,4,5-trichlorophenyl)but-1-en-1-yl)-2-(trifluoromethyl)benzohydrazide] | 50 to 100% | 50 to 100%
O=C(NNc1ncccn1)c1ccc(/C(F)=C/C(c2ccc(Cl)c(OC(F)(F)F)c2)C(F)(F)F)cc1C(F)(F)F (centres unmarked) [F42, (Z)-4-(3-(4-Chloro-3-(trifluoromethoxy)phenyl)-1,4,4,4-tetrafluorobut-1-en-1-yl)-N′-(pyrimidin-2-yl)-2-(trifluoromethyl)benzohydrazide] | 50 to 100% | 50 to 100%
CN(NC(=O)c1ccc(/C(F)=C/C(c2cc(Cl)c(Cl)c(Cl)c2)C(F)(F)F)cc1Cl)c1ncccn1 (centres unmarked) [F43, (Z)-2-Chloro-N′-methyl-N′-(pyrimidin-2-yl)-4-(1,4,4,4-tetrafluoro-3-(3,4,5-trichlorophenyl)but-1-en-1-yl)benzohydrazide] | 50 to 100% | 50 to 100%
O=C(NNc1nccc(C(F)(F)F)n1)c1ccc(/C(F)=C/C(c2cc(Cl)c(Cl)c(Cl)c2)C(F)(F)F)cc1C(F)(F)F (centres unmarked) [F44, (Z)-4-(1,4,4,4-Tetrafluoro-3-(3,4,5-trichlorophenyl)but-1-en-1-yl)-2-(trifluoromethyl)-N′-(4-(trifluoromethyl)pyrimidin-2-yl)benzohydrazide] | 50 to 100% | 50 to 100%
O=C(NNc1ccccc1)c1ccc(/C(F)=C/C(c2cc(Br)c(F)c(Br)c2)C(F)(F)F)cc1C(F)(F)F (centres unmarked) [F45, (Z)-4-(3-(3,5-dibromo-4-fluorophenyl)-1,4,4,4-tetrafluorobut-1-en-1-yl)-N′-phenyl-2-(trifluoromethyl)benzohydrazide] | 50 to 100% | 50 to 100%
O=C(Nn1cnnc1)c1ccc(/C(F)=C/C(c2cc(Cl)c(Cl)c(Cl)c2)C(F)(F)F)cc1C(F)(F)F (centres unmarked) [F48, (Z)-4-(1,4,4,4-Tetrafluoro-3-(3,4,5-trichlorophenyl)but-1-en-1-yl)-N-(4H-1,2,4-triazol-4-yl)-2-(trifluoromethyl)benzamide] | 0% | 0%
O=C(NNCC(F)(F)F)c1ccc(/C(F)=C/C(c2cc(Cl)c(Cl)c(Cl)c2)C(F)(F)F)cc1C(F)(F)F (centres unmarked) [F49, (Z)-4-(1,4,4,4-tetrafluoro-3-(3,4,5-trichlorophenyl)but-1-en-1-yl)-N′-(2,2,2-trifluoroethyl)-2-(trifluoromethyl)benzohydrazide] | 50 to 100% | 50 to 100%
O=C(NNc1ncccn1)c1ccc(/C(F)=C/C(c2ccc(OC(F)(F)F)c(Cl)c2)C(F)(F)F)cc1C(F)(F)F (centres unmarked) [F50, (Z)-4-(3-(3-Chloro-4-(trifluoromethoxy)phenyl)-1,4,4,4-tetrafluorobut-1-en-1-yl)-N′-(pyrimidin-2-yl)-2-(trifluoromethyl)benzohydrazide] | 50 to 100% | 50 to 100%
O=C(Nn1cccc1)c1ccc(/C(F)=C/C(c2cc(Cl)c(Cl)c(Cl)c2)C(F)(F)F)cc1C(F)(F)F (centres unmarked) [F51, (Z)—N-(1H-Pyrrol-1-yl)-4-(1,4,4,4-tetrafluoro-3-(3,4,5-trichlorophenyl)but-1-en-1-yl)-2-(trifluoromethyl)benzamide] | 50 to 100% | 50 to 100%
Cc1cc(/C(F)=C/C(c2cc(Cl)c(Cl)c(Cl)c2)C(F)(F)F)ccc1C(=O)NN(C)c1ncccn1 (centres unmarked) [F55, (Z)—N′,2-Dimethyl-N′-(pyrimidin-2-yl)-4-(1,4,4,4-tetrafluoro-3-(3,4,5-trichlorophenyl)but-1-en-1-yl)benzohydrazide] | 50 to 100% | 50 to 100%
O=C(NNc1ccncc1)c1ccc(/C(F)=C/C(c2cc(Cl)c(Cl)c(Cl)c2)C(F)(F)F)cc1C(F)(F)F (centres unmarked) [F57, (Z)—N′-(Pyridin-4-yl)-4-(1,4,4,4-tetrafluoro-3-(3,4,5-trichlorophenyl)but-1-en-1-yl)-2-(trifluoromethyl)benzohydrazide] | 50 to 100% | 50 to 100%
O=C(NNc1ncnc(Cl)n1)c1ccc(/C(F)=C/C(c2cc(Cl)c(Cl)c(Cl)c2)C(F)(F)F)cc1C(F)(F)F (centres unmarked) [F58, (Z)—N′-(4-Chloro-1,3,5-triazin-2-yl)-4-(1,4,4,4-tetrafluoro-3-(3,4,5-trichlorophenyl)but-1-en-1-yl)-2-(trifluoromethyl)benzohydrazide] | 50 to 100% | 50 to 100%
CN(NC(=O)c1ccc(/C(F)=C/C(c2cc(Cl)c(Cl)c(Cl)c2)C(F)(F)F)cc1C(F)(F)F)c1ccccn1 (centres unmarked) [F59, (Z)—N′-Methyl-N′-(pyridin-2-yl)-4-(1,4,4,4-tetrafluoro-3-(3,4,5-trichloro-phenyl)but-1-en-1-yl)-2-(trifluoromethyl)benzohydrazide] | 50 to 100% | 50 to 100%
CN(NC(=O)c1ccc(/C(F)=C/C(c2ccc(Cl)c(OC(F)(F)F)c2)C(F)(F)F)cc1C(F)(F)F)c1ccccn1 (centres unmarked) [F60, (Z)-4-(3-(4-Chloro-3-(trifluoromethoxy)phenyl)-1,4,4,4-tetrafluorobut-1-en-1-yl)-N′-methyl-N′-(pyridin-2-yl)-2-(trifluoromethyl)benzohydrazide] | 50 to 100% | 50 to 100%
CN(NC(=O)c1ccc(/C(F)=C/C(c2cc(Cl)cc(OC(F)(F)F)c2)C(F)(F)F)cc1C(F)(F)F)c1ccccn1 (centres unmarked) [F61, (Z)-4-(3-(3-Chloro-5-(trifluoromethoxy)phenyl)-1,4,4,4-tetrafluorobut-1-en-1-yl)-N′-methyl-N′-(pyridin-2-yl)-2-(trifluoromethyl)benzohydrazide] | 50 to 100% | 50 to 100%
O=C(Nn1ccnn1)c1ccc(/C(F)=C/C(c2cc(Cl)c(Cl)c(Cl)c2)C(F)(F)F)cc1C(F)(F)F (centres unmarked) [F62, (Z)-4-(1,4,4,4-Tetrafluoro-3-(3,4,5-trichlorophenyl)but-1-en-1-yl)-N-(1H-1,2,3-triazol-1-yl)-2-(trifluoromethyl)benzamide] | 50 to 100% | 50 to 100%
Cc1ccc(NNC(=O)c2ccc(/C(F)=C/C(c3cc(Cl)c(Cl)c(Cl)c3)C(F)(F)F)cc2C(F)(F)F)cc1 (centres unmarked) [F68, (Z)-4-(1,4,4,4-Tetrafluoro-3-(3,4,5-trichlorophenyl)but-1-en-1-yl)-N′-(p-tolyl)-2-(trifluoromethyl)benzohydrazide] | 50 to 100% | 50 to 100%

Reference: patent publication US10638756B2, “Molecules having pesticidal utility, and intermediates, compositions, and processes, related thereto” (Dow AgroSciences LLC, priority 2017, dated 2020)
